# Test system: CHIKV
# Assay type: cell-based, chikungunya virus
Substance,Score_si3,Score_si1,Score_si4,Score_si2
Hs_PTX3_3 (sense AAAGGGATTTGTATTAATTTA; chemistry not given here),1.09,–,–,–
s21624 (sense GGTGTAACCGATTCACTAT; chemistry not given here),0.86,–,–,–
Hs_LBX1_2 (sense CAAGGCCGAGATGACTTCCAA; chemistry not given here),–,2,–,–
s17591 (CGATATGAACCTGACAGTA; chemistry not given here) [reference compound],-0.15,–,–,–
Hs_FTSJ2_2 (sense CAGAATGTAAGGATCATCAAA; chemistry not given here),1.86,–,–,–
s30606 (CAGTGATGGTGATTCAGAT; chemistry not given here),–,–,0.49,–
s34427 (GGTCAGAGACCATCCAGAA; chemistry not given here),–,–,–,1.71
s27208 (sense GACACTTGTTTCTTACCTA; chemistry not given here) [reference compound],–,–,0.22,–
s27237 (sense ACACTAAAGAATTCCGGAA; chemistry not given here) [reference compound],-0.27,–,–,–
Hs_COPS2_3 (sense ATGAATAGATATAAGCAGCTA; chemistry not given here),–,2.07,–,–
Hs_BCHE_4 (CAGAACGTTGAACTTAGCTAA; chemistry not given here),–,0.93,–,–
s35400 (ACGCAGAGGCGGGAACAAA; chemistry not given here),0.6,–,–,–
s26119 (sense CATGGATGAGTTTACCCAA; chemistry not given here) [reference compound],-0.65,–,–,–
s21424 (sense GCAGTGAAATATCCATGAT; chemistry not given here),–,–,–,0.74
s25626 (sense CAAATCCTATAGTATAACA; chemistry not given here) [reference compound],–,–,-0.37,–
s24923 (sense GGAAGTGAAGGAGTAAGTA; chemistry not given here) [reference compound],–,–,-0.27,–
Hs_KRTCAP2_6 (sense CTGACCCTGAATGTTCAATAA; chemistry not given here),–,1.71,–,–
Hs_PCBP1_3 (CACAACTTTATCATCCGCTAA; chemistry not given here),–,–,–,1.85
s916 (GCATCGCAAACTTCACCAA; chemistry not given here),1.06,–,–,–
s195061 (sense CTGTATGGCTTCTATATAA; chemistry not given here),–,–,1.03,–

Substance,Score_si3,Score_si1,Score_si4,Score_si2
s17019 (CCACGTGATAAATCAAGAA; chemistry not given here),–,–,–,1.29
s38241 (TCCTTTTCCATGTACCAGA; chemistry not given here),–,–,0.18,–
s20649 (sense GAATTACGGAGTCAACAAA; chemistry not given here) [reference compound],-1.04,–,–,–
s31790 (GGCTGTTCCTGAGACTGCA; chemistry not given here),–,–,0.92,–
Hs_ATP6AP2_1 (ATGGGCTAATATGGATACTAA; chemistry not given here),–,–,–,0.84
s28992 (GAGCAACTCTGGTCGTGTA; chemistry not given here),0.46,–,–,–
s10395 (sense GGACGACTTCTTTAAGTCA; chemistry not given here),1.58,–,–,–
Hs_CAMKK2_3 (TAGCAGCATGTCCTACGGAAA; chemistry not given here),–,–,1.01,–
s31193 (GGAATGATGTCGTCAGTAA; chemistry not given here),–,–,1.58,–
Hs_PDLIM5_5 (CAGCAGGGAAACGAACTCCGA; chemistry not given here),–,–,–,1.07
Hs_EIF2B5_1 (CTTGTATATGTTAATATTAAA; chemistry not given here),–,–,1.02,–
s37726 (ACTTTTCCCTCTCTCCTAA; chemistry not given here),0.28,–,–,–
s6670 (sense CAACAGGAGGAAGACTTTA; chemistry not given here),–,–,-0.15,–
s26120 (sense GGCCCTTCATCGATAGCTA; chemistry not given here) [reference compound],–,–,–,-0.97
Hs_SIN3A_5 (sense GAGCGTGTAAGCAAGCGTCTA; chemistry not given here),–,2.49,–,–
s51653 (sense GCACCTTGCAGGATTGGAA; chemistry not given here),0.68,–,–,–
s24924 (sense CAGTCGTCCTCAGATGATA; chemistry not given here) [reference compound],-0.67,–,–,–
s11586 (sense GGATAGTGTTCTTAGCAAT; chemistry not given here),–,–,0.13,–
s20340 (sense CAGGCTATCTGAACACGGT; chemistry not given here),1.49,–,–,–
Hs_PSD3_2 (sense ACCAAACGTGTTTAAACTTAA; chemistry not given here) [reference compound],–,–,-0.52,–

Substance,Score_si3,Score_si1,Score_si4,Score_si2
Hs_LOXL2_4 (sense CTCGAGATTCCGGAAAGCATA; chemistry not given here),–,–,0.97,–
Hs_UBE2C_8 (GAGCCCTTGTATATTAAATAA; chemistry not given here) [reference compound],–,-1.05,–,–
Hs_MRPS12_7 (TTCCATCAGGACCACTATTAA; chemistry not given here),–,1.99,–,–
s31659 (CCTCTGAGGTGATCAATGA; chemistry not given here),1.43,–,–,–
s28365 (sense AGATCGACAAGAACGAAGA; chemistry not given here) [reference compound],–,–,-0.72,–
s9628 (GACCTAAAGAAGGAGATTA; chemistry not given here),–,–,1.13,–
Hs_CDK4_2 (sense CAAGGTAACCCTGGTGTTTGA; chemistry not given here),–,1.6,–,–
Hs_C14orf160_1 (AAAGATTTGAATTATAAATAA; chemistry not given here) [reference compound],-1.03,–,–,–
Hs_PCQAP_10 (CAGCATCTAATTAAATTGCAT; chemistry not given here) [reference compound],-0.74,–,–,–
s5571 (sense GCAGGACGAGGGTAAAGAA; chemistry not given here),–,–,–,0.56
Hs_KRTCAP2_5 (sense CTCGCTCACTGCCTTCAATAA; chemistry not given here),1.15,–,–,–
Hs_NRCAM_4 (AGGGTGGTAAATATCCAGTTA; chemistry not given here),–,1.08,–,–
Hs_PRSS15_2 (sense CAGCCTTATGTCGGCGTCTTT; chemistry not given here),–,–,–,1.66
Hs_POU3F2_2 (AAGATGAAAGTTACCACTGAA; chemistry not given here),–,2.65,–,–
s18908 (sense GCAGATCACATGAAGAGAA; chemistry not given here),–,–,–,1.75
s25485 (sense ACTTCCTGTTGGTCTACAA; chemistry not given here),1.19,–,–,–
Hs_CLTC_12 (sense CCGGAGAGATTTCTTCGTGAA; chemistry not given here),–,–,–,2.21
Hs_PP3856_1 (CTGGACAGTGGTGACCTGCTA; chemistry not given here),–,–,–,1.53

# From publication PMC4865845, “A human genome-wide loss-of-function screen identifies effective chikungunya antiviral drugs” (Nature Communications, 2016)
